The text below walks through data of ChEMBL document CHEMBL1132038, “L-770,644: a potent and selective human beta3 adrenergic receptor agonist with improved oral bioavailability” (Bioorg Med Chem Lett, 1999).

For data set [1], the target named is T1, Beta-3 adrenergic receptor (Homo sapiens, UniProt P13945). The data set can be described thus: Adenylyl cyclase activation expressed as percent of maximal stimulation with isoproterenol at the cloned human Beta-3 adrenergic receptor at 10 uM. Format: functional.
Target sequence in this assay (P13945 whole entry, looked up): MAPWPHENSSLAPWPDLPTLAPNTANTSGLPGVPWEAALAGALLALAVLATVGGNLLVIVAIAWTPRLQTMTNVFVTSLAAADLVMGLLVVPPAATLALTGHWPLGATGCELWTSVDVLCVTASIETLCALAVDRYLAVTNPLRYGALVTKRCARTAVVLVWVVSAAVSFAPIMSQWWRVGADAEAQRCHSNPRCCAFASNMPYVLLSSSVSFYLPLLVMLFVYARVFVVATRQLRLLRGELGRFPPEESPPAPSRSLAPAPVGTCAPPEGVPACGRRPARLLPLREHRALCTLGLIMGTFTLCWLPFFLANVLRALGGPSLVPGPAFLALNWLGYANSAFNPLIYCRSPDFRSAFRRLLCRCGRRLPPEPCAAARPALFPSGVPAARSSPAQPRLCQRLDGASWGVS
The target of data set [2] is T1, Beta-3 adrenergic receptor. Put plainly: Agonistic activity against the cloned human Beta-3 adrenergic receptor was measured by its by its ability to stimulate adenylyl cyclase. Format: functional.
Target sequence in this assay (P13945 whole entry): as the sequence (P13945 whole entry, looked up) above
Data set [3] concerns the target T2, Beta-1 adrenergic receptor (Homo sapiens, UniProt P08588). Put plainly: Inhibitory activity against cloned human Beta-1 adrenergic receptor in the presence of [125I]iodocyanopindolol in CHO cells by receptor binding assay. The format is cell-based.
Target sequence in this assay (P08588 whole entry): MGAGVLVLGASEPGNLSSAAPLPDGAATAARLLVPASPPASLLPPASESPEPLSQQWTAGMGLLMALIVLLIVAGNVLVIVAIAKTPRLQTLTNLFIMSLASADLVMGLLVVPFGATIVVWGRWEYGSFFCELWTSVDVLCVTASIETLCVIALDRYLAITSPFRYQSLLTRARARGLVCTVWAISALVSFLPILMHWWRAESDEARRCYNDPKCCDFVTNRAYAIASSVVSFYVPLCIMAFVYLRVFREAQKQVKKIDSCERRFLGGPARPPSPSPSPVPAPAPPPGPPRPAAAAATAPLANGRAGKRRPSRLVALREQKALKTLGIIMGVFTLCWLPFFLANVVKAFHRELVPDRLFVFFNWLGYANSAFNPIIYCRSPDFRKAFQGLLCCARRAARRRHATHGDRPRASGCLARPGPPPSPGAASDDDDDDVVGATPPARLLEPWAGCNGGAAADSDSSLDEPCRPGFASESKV
Data set [4] has as its target T2, Beta-1 adrenergic receptor. The data set can be described thus: Agonistic activity against the cloned human Beta-1 adrenergic receptor was measured by its by its ability to stimulate adenylyl cyclase. The format is functional.
Target sequence in this assay (P08588 whole entry): as above
Data set [5] deals with T3, Beta-2 adrenergic receptor (Homo sapiens, UniProt P07550). The data set can be described thus: Inhibitory activity against cloned human Beta-2 adrenergic receptor in the presence of [125I]iodocyanopindolol in CHO cells by receptor binding assay. The format is cell-based.
Target sequence in this assay (P07550 whole entry): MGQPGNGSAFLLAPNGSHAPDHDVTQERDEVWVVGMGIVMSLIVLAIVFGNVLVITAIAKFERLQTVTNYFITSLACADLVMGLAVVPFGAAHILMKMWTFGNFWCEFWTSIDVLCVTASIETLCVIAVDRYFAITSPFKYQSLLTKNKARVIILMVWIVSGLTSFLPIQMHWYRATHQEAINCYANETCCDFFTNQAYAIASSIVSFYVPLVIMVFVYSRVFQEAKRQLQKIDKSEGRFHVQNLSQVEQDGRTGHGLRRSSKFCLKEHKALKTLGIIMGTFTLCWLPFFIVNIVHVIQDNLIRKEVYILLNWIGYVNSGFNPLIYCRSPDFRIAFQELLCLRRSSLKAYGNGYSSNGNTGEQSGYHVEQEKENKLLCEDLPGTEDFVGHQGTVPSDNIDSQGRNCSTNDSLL
Data set [6] deals with T2, Beta-1 adrenergic receptor. The data set can be described thus: Adenylyl cyclase activation expressed as percent of maximal stimulation with isoproterenol against the cloned human Beta-1 adrenergic receptor 10 uM. Format: functional.
Target sequence in this assay (P08588 whole entry, looked up): as the sequence (P08588 whole entry) above
The target in data set [7] is T3, Beta-2 adrenergic receptor. The data set can be described thus: Adenylyl cyclase activation expressed as percent of maximal stimulation with isoproterenol against the cloned human Beta-2 adrenergic receptor at 10 uM. The format is functional.
Target sequence in this assay (P07550 whole entry, looked up): as the sequence (P07550 whole entry) above
Data set [8] can be described thus: Compound was evaluated for the half-life (t 1/2) in hours. Format: ADME, organism-based, Canis lupus familiaris. The note with it: dog, in vivo.
Data set [9] in a line: Oral bioavailability in dog (p.o. dosing of 0.05 M citric acid/0.05 M hydrochloric acid solution). Format: ADME, organism-based, Canis lupus familiaris. The settings on record: in vivo.
The nature of data set [10]: Oral bioavailability in rat. The format is ADME, organism-based. The note with it: in vivo.
Data set [11] deals with T3, Beta-2 adrenergic receptor. Put plainly: Agonistic activity against the cloned human Beta-2 adrenergic receptor was measured by its by its ability to stimulate adenylyl cyclase. Format: functional.
Target sequence in this assay (P07550 whole entry): as above
A short description of data set [12]: Oral bioavailability in dog. The format is ADME, organism-based, Canis lupus familiaris. The settings on record: in vivo.
In data set [13] the target is T3, Beta-2 adrenergic receptor. Put plainly: Adenylyl cyclase activation expressed as percent of maximal stimulation with isoproterenol at the cloned human Beta-2 adrenergic receptor at 10 uM. Format: functional.
Target sequence in this assay (P07550 whole entry, looked up): as the sequence (P07550 whole entry) above
Data set [14] has as its target T2, Beta-1 adrenergic receptor. The data set can be described thus: Adenylyl cyclase activation expressed as percent of maximal stimulation with isoproterenol at the cloned human Beta-1 adrenergic receptor at 10 uM. The format is functional.
Target sequence in this assay (P08588 whole entry, looked up): as the sequence (P08588 whole entry) above
Data set [15] deals with Monkey. Put plainly: Compound was tested for agonistic activity for glycerolemia in rhesus monkey. The format is functional. The settings on record: Cercopithecidae, in Macaca mulatta.
For data set [16], the target named is T2, Beta-1 adrenergic receptor. The data set can be described thus: Inhibitory activity against cloned human Beta-1 adrenergic receptor in the presence of [125I]iodocyanopindolol expressed in CHO cells by receptor binding assay. The format is cell-based.
Target sequence in this assay (P08588 whole entry): as above
Data set [17] concerns the target T1, Beta-3 adrenergic receptor. Put plainly: Inhibitory activity against cloned human Beta-3 adrenergic receptor in the presence of [125I]iodocyanopindolol expressed in CHO cells by receptor binding assay. The format is cell-based.
Target sequence in this assay (P13945 whole entry): as the sequence (P13945 whole entry, looked up) above

By EC50 is commonly meant the concentration that produces a half-maximal response. Broadly, the IC50 is the midpoint of a concentration-inhibition curve. As for `CCCCCCCCn1nnn(-c2ccc(S(=O)(=O)Nc3ccc(CCNC[C@H](O)c4cccnc4)cc3)cc2)c1=O`, the Activation in data set [1] stood at 57%. Moreover, the EC50 in [2] is 6.3 nM; in data set [4], 370 nM. Moreover, the 50% inhibitory concentration (IC50) in data set [3] turned out to be 1400 nM; in [5] it was 570 nM.

As to `CCCCCCn1nnn(-c2ccc(S(=O)(=O)Nc3ccc(CCNC[C@H](O)c4cccnc4)cc3)cc2)c1=O`, the values for the Activation in data set [1], in data set [6] and in data set [7] were 67%, 19% and 9%, respectively. Also, in [2], the EC50 was 30 nM. Further, the IC50 worked out at 5000 nM in [3] and 3300 nM in [5].

What is called half-life is the time needed for the level to fall by half in the phase considered. The bioavailability is the share of a dose that reaches the circulation, judged against a reference dose that is usually intravenous. As for `CCCCCCn1ccn(-c2ccc(S(=O)(=O)Nc3ccc(CCNC[C@H](O)c4cccnc4)cc3)cc2)c1=O` [L-764646], in data set [8], the half-life was 3.6 h. Also, in [9], the bioavailability came to 12%.

One may read the ED50 as the dose at which the effect has come halfway, by size or by number of responders. With `O=c1n(CCCC2CCCC2)nnn1-c1ccc(S(=O)(=O)Nc2ccc(CCNC[C@H](O)c3cccnc3)cc2)cc1`, the Activation turned out to be 75% in [1], 26% in data set [13] and 33% in data set [14]. In addition, the bioavailability in data set [10] and in [12] was 27% each time. Moreover, the EC50 in [11] was 1800 nM; in data set [2], 13 nM; in data set [4] it was 1900 nM. For the same compound, the figures for the IC50 in data set [5], in data set [16] and in data set [17] were 1600 nM, 3400 nM and 92 nM, respectively. The compound also returned an ED50 in data set [15] of 0.21 mg/kg.

`O=C1N(CCCC2CCCC2)CCN1c1ccc(S(=O)(=O)Nc2ccc(CCNC[C@H](O)c3cccnc3)cc2)cc1` [L-766892] gave a half-life in data set [8] of 3.5 h. This compound had a bioavailability in data set [9] of 17%.
